Legend:
[1] = test system: parasympathetic nerve state (relaxation state) of test subjects; test: stress substitution experiment (FIG. 6); type: in vivo, human; conditions: average of six test subjects, cedrol in diethylene glycol monobutyl ether
From the text: In this experiment, instead of actual driving, a stress substitution experiment is applied to confirm effects. The stress substitution experiment may be, for example, repetitively performing simple calculations, handling heavy objects with difficult posture, etc.
In the above stress substitution experiment, with respect to an initial state, the parasympathetic nerve state (relaxation state) of the test subjects decreases when stressed. […] In other words, it is possible for a mixture solvent of cedrol is change an irritated state to a relaxed state.

parasympathetic nerves = test: parasympathetic nerve state with respect to cedrol concentration (FIG. 4); type: in vivo, human
Description: Then, once cedrol concentration exceeds 300 μg/m^3, due to excessive relaxation, sleepiness is promoted.

[2] = test system: α-II waves and θ waves in the brain; test: human brain waves recorded in an environment where cedrol is volatilized (FIG. 3); type: in vivo
Description: Further, from the start of volatilization of cedrol and until cedrol concentration reaches 300 μg/m^3, the activity voltage of α-II waves is greater than that of θ waves, and it is understood that this is suitable for relaxing a person. Further, once cedrol concentration exceeds 300 μg/m^3, the activity voltage of […] is greater than that of α-II waves, and it is understood that this is suitable for promoting sleepiness in a person.

humans = conditions: general statement; cited from earlier work

C[C@@H]1CC[C@H]2C(C)(C)[C@H]3C[C@@]12CC[C@@]3(C)O [cedrol]
parasympathetic nerve state (relaxation state) after release of mixture solvent vapor to stressed test subjects [1]: increases to above the initial state | lower limit of cedrol for exhibiting a relaxation effect (parasympathetic nerves; volatilization amount in vehicle cabin): 0.5 μg/m^3 | cedrol concentration at which sleepiness is promoted due to excessive relaxation (parasympathetic nerves; volatilized cedrol in air): exceeds 300 μg/m^3 | parasympathetic nerve state with increasing cedrol concentration (parasympathetic nerves; volatilized cedrol in air): parasympathetic nerves become significant | cedrol concentration at which activity voltage of α-II waves is greater than that of θ waves (suitable for relaxing) ([2]; from the start of volatilization): ≤ 300 μg/m^3 | activity voltages of α-II waves (relaxation) and θ waves (falling asleep) ([2]; human brain waves, volatilized cedrol, with rising concentration): both increase as the concentration of cedrol increases | cedrol concentration at which activity voltage of θ waves is greater than that of α-II waves (promoting sleepiness) ([2]; volatilized cedrol in air): exceeds 300 μg/m^3 | physiological effects in humans (humans): lowering heat rate, respiratory rate, blood pressure, etc. in humans, and also increasing α-II waves in the brain

— patent US20200254211A1, “STRESS RELIEVING DEVICE FOR VEHICLES” (DENSO CORPORATION, priority 2015, published 2020)
